In ChEMBL document CHEMBL5360525, “Design, synthesis and anti-tumor efficacy of novel phenyl thiazole/triazole derivatives as selective TrkA inhibitors” (Bioorg Med Chem, 2022):
Active and inactive are the calls of the source. The rule behind the calls is not given here.

Assays:
A549 = assay: Antiproliferative activity against human A549 cells assessed as reduction in cell viability for 72 hrs by MTT assay; settings: A549, 72 h
KM12 [1] = assay: Antiproliferative activity against human KM12 cells assessed as reduction in cell viability for 72 hrs by MTT assay; settings: KM12, 72 h
KM12 [2] = assay: Inhibition of colony formation in human KM12 cells assessed as decrease in colony count at 75 nM incubated for 72 hrs by crystal violet staining based assay; type: functional, cell-based
[3] = biological target: High affinity nerve growth factor receptor (Homo sapiens, UniProt P04629); assay: Inhibition of TRKA (unknown origin) incubated for 1 hr by mobility shift assay
Chain of High affinity nerve growth factor receptor (P04629 whole entry): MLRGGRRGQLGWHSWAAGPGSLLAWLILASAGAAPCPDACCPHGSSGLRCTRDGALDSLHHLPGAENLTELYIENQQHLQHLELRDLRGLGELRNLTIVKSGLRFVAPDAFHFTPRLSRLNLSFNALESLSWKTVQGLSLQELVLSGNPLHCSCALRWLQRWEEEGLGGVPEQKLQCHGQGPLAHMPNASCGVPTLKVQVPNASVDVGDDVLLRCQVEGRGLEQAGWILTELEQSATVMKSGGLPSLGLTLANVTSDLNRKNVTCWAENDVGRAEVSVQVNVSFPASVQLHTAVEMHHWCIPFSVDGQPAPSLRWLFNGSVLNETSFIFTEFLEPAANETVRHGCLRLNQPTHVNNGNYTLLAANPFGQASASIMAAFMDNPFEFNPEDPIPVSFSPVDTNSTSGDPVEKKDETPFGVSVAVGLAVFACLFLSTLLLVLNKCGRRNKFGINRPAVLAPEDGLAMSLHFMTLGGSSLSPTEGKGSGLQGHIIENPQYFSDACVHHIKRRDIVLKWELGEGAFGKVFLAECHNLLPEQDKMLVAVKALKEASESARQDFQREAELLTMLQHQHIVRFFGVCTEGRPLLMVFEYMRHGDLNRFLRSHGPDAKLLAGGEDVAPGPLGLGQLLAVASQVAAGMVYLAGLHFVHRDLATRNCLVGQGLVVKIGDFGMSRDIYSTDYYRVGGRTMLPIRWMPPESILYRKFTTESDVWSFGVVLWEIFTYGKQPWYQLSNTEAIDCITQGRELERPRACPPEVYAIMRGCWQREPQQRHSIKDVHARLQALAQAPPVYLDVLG

[4] = biological target: BDNF/NT-3 growth factors receptor (Homo sapiens, UniProt Q16620); assay: Inhibition of TRKB (unknown origin) incubated for 1 hr by mobility shift assay
Chain of BDNF/NT-3 growth factors receptor (Q16620 whole entry): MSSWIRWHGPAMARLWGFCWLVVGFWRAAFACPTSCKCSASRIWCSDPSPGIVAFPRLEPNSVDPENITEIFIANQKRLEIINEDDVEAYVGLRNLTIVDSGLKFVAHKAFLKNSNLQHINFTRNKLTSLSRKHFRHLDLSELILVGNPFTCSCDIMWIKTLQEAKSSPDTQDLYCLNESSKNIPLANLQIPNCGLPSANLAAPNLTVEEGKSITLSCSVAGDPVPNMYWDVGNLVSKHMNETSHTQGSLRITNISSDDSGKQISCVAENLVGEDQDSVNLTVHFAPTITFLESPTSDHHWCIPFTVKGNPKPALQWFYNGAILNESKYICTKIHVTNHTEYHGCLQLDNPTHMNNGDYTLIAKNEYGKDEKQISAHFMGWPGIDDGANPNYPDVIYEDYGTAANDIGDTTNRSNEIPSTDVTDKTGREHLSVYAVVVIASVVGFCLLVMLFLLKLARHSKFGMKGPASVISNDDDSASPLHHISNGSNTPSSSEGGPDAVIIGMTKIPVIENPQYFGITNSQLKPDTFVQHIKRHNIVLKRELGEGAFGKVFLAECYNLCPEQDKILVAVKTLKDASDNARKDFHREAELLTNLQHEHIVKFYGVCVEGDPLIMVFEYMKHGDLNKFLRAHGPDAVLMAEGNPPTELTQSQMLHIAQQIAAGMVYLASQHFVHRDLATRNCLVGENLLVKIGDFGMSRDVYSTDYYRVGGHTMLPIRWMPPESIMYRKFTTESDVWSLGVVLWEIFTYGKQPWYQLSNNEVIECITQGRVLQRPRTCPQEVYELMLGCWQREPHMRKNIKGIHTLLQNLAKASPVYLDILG

[5] = biological target: NT-3 growth factor receptor (Homo sapiens, UniProt Q16288); assay: Inhibition of TRKC (unknown origin) incubated for 1 hr by mobility shift assay
Chain of NT-3 growth factor receptor (Q16288 whole entry): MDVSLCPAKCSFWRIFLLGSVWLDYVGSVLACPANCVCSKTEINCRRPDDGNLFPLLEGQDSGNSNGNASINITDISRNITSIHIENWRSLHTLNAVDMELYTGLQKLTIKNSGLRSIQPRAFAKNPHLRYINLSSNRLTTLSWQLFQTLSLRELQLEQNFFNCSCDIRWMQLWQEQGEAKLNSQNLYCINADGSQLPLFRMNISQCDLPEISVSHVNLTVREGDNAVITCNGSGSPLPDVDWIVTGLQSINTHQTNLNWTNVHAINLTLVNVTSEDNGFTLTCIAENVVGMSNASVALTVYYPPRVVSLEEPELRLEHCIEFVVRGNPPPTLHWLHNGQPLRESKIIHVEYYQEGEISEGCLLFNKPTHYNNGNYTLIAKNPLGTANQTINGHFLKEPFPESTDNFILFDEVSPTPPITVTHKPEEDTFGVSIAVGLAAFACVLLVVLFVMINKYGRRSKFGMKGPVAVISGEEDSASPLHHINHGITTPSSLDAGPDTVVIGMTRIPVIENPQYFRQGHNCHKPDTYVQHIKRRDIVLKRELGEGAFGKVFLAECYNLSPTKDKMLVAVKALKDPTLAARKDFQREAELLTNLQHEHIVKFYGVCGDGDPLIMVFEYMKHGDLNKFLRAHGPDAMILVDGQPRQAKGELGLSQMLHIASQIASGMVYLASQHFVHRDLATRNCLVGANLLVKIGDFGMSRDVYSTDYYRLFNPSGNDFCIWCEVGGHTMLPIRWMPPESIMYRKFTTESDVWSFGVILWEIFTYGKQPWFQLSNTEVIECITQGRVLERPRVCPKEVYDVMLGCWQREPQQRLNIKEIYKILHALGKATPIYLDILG

| Compound | IC50 (A549) | IC50 [3] | IC50 [4] | IC50 [5] | IC50 (KM12 [1]) | inhibition (KM12 [2]) |
| --- | --- | --- | --- | --- | --- | --- |
| O=C(Nc1cccc(-n2cc(CN3CCSCC3)nn2)c1)c1cc(F)cc(F)c1 | > 10 µM | – | – | – | 12.3 µM | – |
| CN1CCN(c2ccc(C(=O)Nc3n[nH]c4ccc(Cc5cc(F)cc(F)c5)cc34)c(NC3CCOCC3)c2)CC1 | – | – | – | – | – | Active |
| O=C(Nc1cccc(-n2cc(CN3CCS(=O)(=O)CC3)nn2)c1)c1cc(F)cc(F)c1 | > 10 µM | – | – | – | 12.2 µM | – |
| CN(C)Cc1cn(-c2cccc(NC(=O)c3cc(F)cc(F)c3)c2)nn1 | > 10 µM | – | – | – | 17.5 µM | – |
| O=C(Nc1cccc(-n2cc(CNC3CC3)nn2)c1)c1cc(F)cc(F)c1 | > 10 µM | – | – | – | 5.21 µM | – |
| CN1CCN(c2ccc(NCc3cn(-c4cccc(CNc5cc(F)cc(F)c5)c4)nn3)cc2C(=O)N(C)C)CC1 | > 10 µM | – | – | – | 1.71 µM | – |
| CN1CCN(c2ccc(NCc3cn(-c4cccc(NCc5cc(F)cc(F)c5)c4)nn3)cc2C(=O)N2CCOCC2)CC1 | > 10 µM | – | – | – | 0.63 µM | – |
| O=C(Nc1cccc(-n2cc(CN3CCCC3)nn2)c1)c1cc(F)cc(F)c1 | > 10 µM | – | – | – | 8.02 µM | – |
| CN1CCN(c2ccc(NCc3cn(-c4cccc(CNc5cc(F)cc(F)c5)c4)nn3)cc2C(=O)N2CCCCC2)CC1 | > 10 µM | – | – | – | 0.76 µM | – |

Continued, in another order:

| IC50 (A549) | IC50 [3] | IC50 [4] | IC50 [5] | Compound | IC50 (KM12 [1]) | inhibition (KM12 [2]) |
| --- | --- | --- | --- | --- | --- | --- |
| > 10 µM | – | – | – | CN1CCN(c2ccc(NCc3cn(-c4cccc(CNc5cc(F)cc(F)c5)c4)nn3)cc2C(=O)N2CCCC2)CC1 | 0.95 µM | – |
| 1.21 µM | – | – | – | CN(C)c1nc(-c2cccc(NC(=O)c3cc(F)cc(F)c3)c2)cs1 | 28.8 µM | – |
| > 10 µM | – | – | – | O=C(Nc1cccc(-n2cc(CNC3CCCC3)nn2)c1)c1cc(F)cc(F)c1 | 3.83 µM | – |
| 0.55 µM | – | – | – | O=C(Nc1cccc(-c2csc(NCCO)n2)c1)c1cc(F)cc(F)c1 | 17.1 µM | – |
| 0.17 µM | – | – | – | O=C(Nc1cccc(-c2csc(N3CCCC3)n2)c1)c1cc(F)cc(F)c1 | 16.5 µM | – |
| 0.72 µM | – | – | – | CN1CCN(c2nc(-c3cccc(NC(=O)c4cc(F)cc(F)c4)c3)cs2)CC1 | 14 µM | – |
| 0.27 µM | – | – | – | O=C(Nc1cccc(-c2csc(N3CCOCC3)n2)c1)c1cc(F)cc(F)c1 | 9.63 µM | – |
| 0.21 µM | – | – | – | O=C(Nc1cccc(-c2csc(N3CCC(O)CC3)n2)c1)c1cc(F)cc(F)c1 | 7.57 µM | – |
| 0.51 µM | > 0.1 µM | > 0.1 µM | > 0.1 µM | O=C(Nc1cccc(-c2csc(N3CCN(CCO)CC3)n2)c1)c1cc(F)cc(F)c1 | 7.25 µM | – |
| 0.39 µM | – | – | – | O=C(Nc1cccc(-c2csc(N3CCC[C@H]3CO)n2)c1)c1cc(F)cc(F)c1 | 8.16 µM | – |
